Columns and labels:
DCAMKL1 = target: T1, DCAMKL1 (Homo sapiens, UniProt O15075); experiment: KINOMEscan at 1 μM, DCAMKL1; format: binding; conditions: 1000 nM, read-out: Percent Control
T1 construct: purchased Eurofins DiscoverX KINOMEscan
Text: (§1) Supplement cells-12-00287-s001.zip/File S2. KinomeScan data for the CAMKK2 probe and negative control.xlsx, sheet "SGC-CAMKK2-1N" | column: Percent Control

PIK3CG = target: T2, PIK3CG (Homo sapiens, UniProt P48736); experiment: KINOMEscan at 1 μM, PIK3CG; format: binding; conditions: 1000 nM, read-out: Percent Control
T2 construct: purchased Eurofins DiscoverX KINOMEscan
Text: as §1

ACVR2B = target: T3, ACVR2B (Homo sapiens, UniProt Q13705); experiment: KINOMEscan at 1 μM, ACVR2B; format: binding; conditions: 1000 nM, read-out: Percent Control
T3 construct: purchased Eurofins DiscoverX KINOMEscan
Text: as §1

FER = target: T4, FER (Homo sapiens, UniProt P16591); experiment: KINOMEscan binding assay at 1 μM, FER; conditions: Compound Concentration 1000 nM; read-out: Percent Control
T4 construct: purchased Eurofins DiscoverX KINOMEscan
Text: as §1

TIE1 = target: T5, TIE1 (Homo sapiens, UniProt P35590); experiment: KINOMEscan binding assay at 1 μM, TIE1; conditions: Compound Concentration 1000 nM; read-out: Percent Control
T5 construct: purchased Eurofins DiscoverX KINOMEscan
Text: as §1

LATS2 = target: T6, LATS2 (Homo sapiens, UniProt Q9NRM7); experiment: KINOMEscan at 1 μM, LATS2; format: binding; conditions: 1000 nM, read-out: Percent Control
T6 construct: purchased Eurofins DiscoverX KINOMEscan
Text: as §1

[1] = target: T7, ABL1(M351T)-phosphorylated (Homo sapiens, UniProt P00519, M351T); experiment: KINOMEscan at 1 μM, ABL1(M351T)-phosphorylated; format: binding; conditions: 1000 nM, read-out: Percent Control
T7 construct: purchased Eurofins DiscoverX KINOMEscan
Text: as §1

CDK8 = target: T8, CDK8 (Homo sapiens, UniProt P49336); experiment: KINOMEscan at 1 μM, CDK8; format: binding; conditions: 1000 nM, read-out: Percent Control
T8 construct: purchased Eurofins DiscoverX KINOMEscan
Text: as §1

[2] = target: T9, EGFR(L747-S752del, P753S) (Homo sapiens, UniProt P00533, DEL747-752/P753S); experiment: KINOMEscan binding assay at 1 μM, EGFR(L747-S752del, P753S); conditions: Compound Concentration 1000 nM; read-out: Percent Control
T9 construct: purchased Eurofins DiscoverX KINOMEscan
Text: as §1

BMPR1B = target: T10, BMPR1B (Homo sapiens, UniProt O00238); experiment: KINOMEscan at 1 μM, BMPR1B; format: binding; conditions: 1000 nM, read-out: Percent Control
T10 construct: purchased Eurofins DiscoverX KINOMEscan
Text: as §1

PLK4 = target: T11, PLK4 (Homo sapiens, UniProt O00444); experiment: KINOMEscan binding assay at 1 μM, PLK4; conditions: Compound Concentration 1000 nM; read-out: Percent Control
T11 construct: purchased Eurofins DiscoverX KINOMEscan
Text: as §1

ZAP70 = target: T12, ZAP70 (Homo sapiens, UniProt P43403); experiment: KINOMEscan at 1 μM, ZAP70; format: binding; conditions: 1000 nM, read-out: Percent Control
T12 construct: purchased Eurofins DiscoverX KINOMEscan
Text: as §1

BRSK2 = target: T13, BRSK2 (Homo sapiens, UniProt Q8IWQ3); experiment: KINOMEscan at 1 μM, BRSK2; format: binding; conditions: 1000 nM, read-out: Percent Control
T13 construct: purchased Eurofins DiscoverX KINOMEscan
Text: as §1

VRK2 = target: T14, VRK2 (Homo sapiens, UniProt Q86Y07); experiment: KINOMEscan at 1 μM, VRK2; format: binding; conditions: 1000 nM, read-out: Percent Control
T14 construct: purchased Eurofins DiscoverX KINOMEscan
Text: as §1

AURKB [3] = target: T15, AURKB (Homo sapiens, UniProt Q96GD4); experiment: KINOMEscan at 1 μM, AURKB; format: binding; conditions: 1000 nM, read-out: Percent Control
T15 construct: purchased Eurofins DiscoverX KINOMEscan
Text: as §1

CDK4 = target: T16, CDK4 (Homo sapiens, UniProt P11802); experiment: KINOMEscan at 1 μM, CDK4; format: binding; conditions: 1000 nM, read-out: Percent Control
T16 construct: purchased Eurofins DiscoverX KINOMEscan
Text: as §1

FAK = target: T17, FAK (Homo sapiens, UniProt Q05397); experiment: KINOMEscan 1 μM, FAK; format: binding; conditions: 1000 nM; Entrez PTK2; read-out: Percent Control
T17 construct: purchased Eurofins DiscoverX KINOMEscan
Text: (§2) Supplement cells-12-00287-s001.zip/File S2. KinomeScan data for the CAMKK2 probe and negative control.xlsx, sheet "SGC-CAMKK2-1" | column: Percent Control

ERK1 = target: T18, ERK1 (Homo sapiens, UniProt P27361); experiment: KINOMEscan 1 μM, ERK1; format: binding; conditions: 1000 nM; Entrez MAPK3; read-out: Percent Control
T18 construct: purchased Eurofins DiscoverX KINOMEscan
Text: as §2

[4] = target: T19, RSK1(Kin.Dom.1-N-terminal) (Homo sapiens, UniProt Q15418); experiment: DiscoverX KINOMEscan binding assay at 1 μM, RSK1(Kin.Dom.1-N-terminal); conditions: RSK1(Kin.Dom.1-N-terminal) (RPS6KA1); Compound Concentration 1000 nM; read-out: Percent Control
T19 construct: RSK1(Kin.Dom.1-N-terminal); purchased Eurofins DiscoverX KINOMEscan
Text: as §2

MST1 = target: T20, MST1 (Homo sapiens, UniProt Q13043); experiment: KINOMEscan 1 μM, MST1; format: binding; conditions: 1000 nM; Entrez STK4; read-out: Percent Control
T20 construct: purchased Eurofins DiscoverX KINOMEscan
Text: as §2

CSF1R-autoinhibited = target: T21, CSF1R-autoinhibited (Homo sapiens, UniProt P07333); experiment: KINOMEscan 1 μM, CSF1R-autoinhibited; format: binding; conditions: 1000 nM; Entrez CSF1R; read-out: Percent Control
T21 construct: purchased Eurofins DiscoverX KINOMEscan
Text: as §2

YES = target: T22, YES (Homo sapiens, UniProt P07947); experiment: DiscoverX KINOMEscan binding assay at 1 μM, YES; conditions: YES (YES1); Compound Concentration 1000 nM; read-out: Percent Control
T22 construct: purchased Eurofins DiscoverX KINOMEscan
Text: as §2

[5] = target: T7, ABL1(M351T)-phosphorylated; experiment: KINOMEscan 1 μM, ABL1(M351T)-phosphorylated; format: binding; conditions: 1000 nM; Entrez ABL1; read-out: Percent Control
Text: as §2

ASK1 = target: T23, ASK1 (Homo sapiens, UniProt Q99683); experiment: KINOMEscan 1 μM, ASK1; format: binding; conditions: 1000 nM; Entrez MAP3K5; read-out: Percent Control
T23 construct: purchased Eurofins DiscoverX KINOMEscan
Text: as §2

AMPK-alpha1 = target: T24, AMPK-alpha1 (Homo sapiens, UniProt Q13131); experiment: KINOMEscan 1 μM, AMPK-alpha1; format: binding; conditions: 1000 nM; Entrez PRKAA1; read-out: Percent Control
T24 construct: purchased Eurofins DiscoverX KINOMEscan
Text: as §2

KIT(V559D,V654A) = target: T25, KIT(V559D,V654A) (Homo sapiens, UniProt P10721, V559D/V654A); experiment: KINOMEscan 1 μM, KIT(V559D,V654A); format: binding; conditions: 1000 nM; Entrez KIT; read-out: Percent Control
T25 construct: purchased Eurofins DiscoverX KINOMEscan
Text: as §2

p38-alpha = target: T26, p38-alpha (Homo sapiens, UniProt Q16539); experiment: KINOMEscan 1 μM, p38-alpha; format: binding; conditions: 1000 nM; Entrez MAPK14; read-out: Percent Control
T26 construct: purchased Eurofins DiscoverX KINOMEscan
Text: as §2

AURKB [6] = target: T15, AURKB; experiment: KINOMEscan 1 μM, AURKB; format: binding; conditions: 1000 nM; Entrez AURKB; read-out: Percent Control
Text: as §2

NLK = target: T27, NLK (Homo sapiens, UniProt Q9UBE8); experiment: KINOMEscan 1 μM, NLK; format: binding; conditions: 1000 nM; Entrez NLK; read-out: Percent Control
T27 construct: purchased Eurofins DiscoverX KINOMEscan
Text: as §2

MLK3 = target: T28, MLK3 (Homo sapiens, UniProt Q16584); experiment: KINOMEscan 1 μM, MLK3; format: binding; conditions: 1000 nM; Entrez MAP3K11; read-out: Percent Control
T28 construct: purchased Eurofins DiscoverX KINOMEscan
Text: as §2

TLK2 = target: T29, TLK2 (Homo sapiens, UniProt Q86UE8); experiment: DiscoverX KINOMEscan binding assay at 1 μM, TLK2; conditions: Compound Concentration 1000 nM, read-out: Percent Control
T29 construct: purchased Eurofins DiscoverX KINOMEscan
Text: as §2

CAMK2G = target: T30, CAMK2G (Homo sapiens, UniProt Q13555); experiment: KINOMEscan 1 μM, CAMK2G; format: binding; conditions: 1000 nM; Entrez CAMK2G; read-out: Percent Control
T30 construct: purchased Eurofins DiscoverX KINOMEscan
Text: as §2

T15 sequence (Q96GD4 whole entry): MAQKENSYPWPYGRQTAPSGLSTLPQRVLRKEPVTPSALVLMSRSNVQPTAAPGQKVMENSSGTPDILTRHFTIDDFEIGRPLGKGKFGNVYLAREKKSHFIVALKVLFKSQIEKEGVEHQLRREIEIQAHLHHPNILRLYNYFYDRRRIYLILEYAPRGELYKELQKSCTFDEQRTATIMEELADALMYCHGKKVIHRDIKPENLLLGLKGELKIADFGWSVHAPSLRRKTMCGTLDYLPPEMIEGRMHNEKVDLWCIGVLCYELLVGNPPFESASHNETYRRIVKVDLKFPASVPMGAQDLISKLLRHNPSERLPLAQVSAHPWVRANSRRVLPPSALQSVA
T9 sequence (P00533 with tags, fused parts or gaps DEL747-752/P753S limits assumed): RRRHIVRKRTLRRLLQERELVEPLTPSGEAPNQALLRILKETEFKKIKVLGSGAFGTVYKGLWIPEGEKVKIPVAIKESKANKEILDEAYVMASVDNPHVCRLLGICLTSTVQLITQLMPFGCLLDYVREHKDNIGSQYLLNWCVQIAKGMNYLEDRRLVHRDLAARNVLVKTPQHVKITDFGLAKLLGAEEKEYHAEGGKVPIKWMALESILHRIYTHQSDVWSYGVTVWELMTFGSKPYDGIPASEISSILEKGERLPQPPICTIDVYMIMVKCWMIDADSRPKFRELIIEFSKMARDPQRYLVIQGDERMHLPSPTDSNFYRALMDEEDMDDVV
T1 sequence (O15075 whole entry): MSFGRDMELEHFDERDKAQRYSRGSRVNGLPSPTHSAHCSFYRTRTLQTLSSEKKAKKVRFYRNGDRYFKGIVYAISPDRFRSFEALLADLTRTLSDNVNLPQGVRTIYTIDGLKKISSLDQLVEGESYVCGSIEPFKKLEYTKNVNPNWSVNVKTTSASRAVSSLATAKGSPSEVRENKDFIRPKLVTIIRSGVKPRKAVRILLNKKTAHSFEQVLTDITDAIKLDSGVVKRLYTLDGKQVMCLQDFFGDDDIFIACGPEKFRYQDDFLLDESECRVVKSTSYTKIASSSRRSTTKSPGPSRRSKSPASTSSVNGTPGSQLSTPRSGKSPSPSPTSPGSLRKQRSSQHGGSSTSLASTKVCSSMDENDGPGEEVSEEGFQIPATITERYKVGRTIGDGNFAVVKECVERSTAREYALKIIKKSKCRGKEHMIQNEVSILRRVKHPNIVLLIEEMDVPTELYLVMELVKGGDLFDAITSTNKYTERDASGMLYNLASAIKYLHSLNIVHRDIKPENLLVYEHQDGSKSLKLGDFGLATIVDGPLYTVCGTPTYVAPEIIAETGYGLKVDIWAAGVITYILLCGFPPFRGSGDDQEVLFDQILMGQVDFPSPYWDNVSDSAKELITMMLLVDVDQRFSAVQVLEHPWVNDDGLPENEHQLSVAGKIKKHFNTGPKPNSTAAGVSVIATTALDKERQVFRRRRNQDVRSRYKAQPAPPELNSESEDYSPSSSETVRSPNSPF
T3 sequence (Q13705 19-512): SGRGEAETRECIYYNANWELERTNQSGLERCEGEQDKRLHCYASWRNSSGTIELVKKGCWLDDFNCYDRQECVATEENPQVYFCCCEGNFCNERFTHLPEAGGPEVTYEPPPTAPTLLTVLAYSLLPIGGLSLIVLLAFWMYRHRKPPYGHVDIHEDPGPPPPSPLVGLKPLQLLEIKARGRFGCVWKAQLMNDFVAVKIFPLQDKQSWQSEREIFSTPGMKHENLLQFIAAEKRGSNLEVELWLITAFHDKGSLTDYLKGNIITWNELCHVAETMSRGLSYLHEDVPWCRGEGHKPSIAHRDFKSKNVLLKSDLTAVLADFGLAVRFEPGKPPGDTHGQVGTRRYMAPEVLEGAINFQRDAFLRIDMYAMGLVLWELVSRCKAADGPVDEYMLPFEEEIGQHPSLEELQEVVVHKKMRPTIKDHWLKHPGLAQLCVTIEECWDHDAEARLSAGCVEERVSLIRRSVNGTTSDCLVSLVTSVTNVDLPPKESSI
T21 sequence (P07333 20-972): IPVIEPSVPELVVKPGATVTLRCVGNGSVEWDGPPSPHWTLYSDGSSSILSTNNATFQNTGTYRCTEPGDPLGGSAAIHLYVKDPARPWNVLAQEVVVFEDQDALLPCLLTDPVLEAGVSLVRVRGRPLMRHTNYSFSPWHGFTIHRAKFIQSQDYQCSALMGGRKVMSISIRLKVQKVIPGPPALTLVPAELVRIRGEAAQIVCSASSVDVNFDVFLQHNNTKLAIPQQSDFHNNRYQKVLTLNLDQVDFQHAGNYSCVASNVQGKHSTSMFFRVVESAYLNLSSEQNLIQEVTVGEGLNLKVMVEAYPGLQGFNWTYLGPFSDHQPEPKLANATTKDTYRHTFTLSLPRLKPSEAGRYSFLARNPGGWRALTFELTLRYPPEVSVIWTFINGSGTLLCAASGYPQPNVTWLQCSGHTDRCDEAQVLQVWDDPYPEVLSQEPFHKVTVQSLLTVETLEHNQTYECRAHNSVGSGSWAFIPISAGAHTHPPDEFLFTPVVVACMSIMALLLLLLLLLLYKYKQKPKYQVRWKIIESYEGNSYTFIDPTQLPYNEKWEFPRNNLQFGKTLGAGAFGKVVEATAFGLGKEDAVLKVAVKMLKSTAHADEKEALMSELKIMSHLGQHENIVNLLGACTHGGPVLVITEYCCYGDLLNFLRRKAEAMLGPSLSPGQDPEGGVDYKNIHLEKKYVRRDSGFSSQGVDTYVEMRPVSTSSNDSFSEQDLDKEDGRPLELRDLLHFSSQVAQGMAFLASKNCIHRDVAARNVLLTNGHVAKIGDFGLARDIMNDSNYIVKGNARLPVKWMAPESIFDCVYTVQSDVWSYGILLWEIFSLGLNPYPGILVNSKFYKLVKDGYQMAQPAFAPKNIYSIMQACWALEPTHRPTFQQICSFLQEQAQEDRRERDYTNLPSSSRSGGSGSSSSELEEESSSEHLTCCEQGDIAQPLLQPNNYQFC
T14 sequence (Q86Y07 whole entry): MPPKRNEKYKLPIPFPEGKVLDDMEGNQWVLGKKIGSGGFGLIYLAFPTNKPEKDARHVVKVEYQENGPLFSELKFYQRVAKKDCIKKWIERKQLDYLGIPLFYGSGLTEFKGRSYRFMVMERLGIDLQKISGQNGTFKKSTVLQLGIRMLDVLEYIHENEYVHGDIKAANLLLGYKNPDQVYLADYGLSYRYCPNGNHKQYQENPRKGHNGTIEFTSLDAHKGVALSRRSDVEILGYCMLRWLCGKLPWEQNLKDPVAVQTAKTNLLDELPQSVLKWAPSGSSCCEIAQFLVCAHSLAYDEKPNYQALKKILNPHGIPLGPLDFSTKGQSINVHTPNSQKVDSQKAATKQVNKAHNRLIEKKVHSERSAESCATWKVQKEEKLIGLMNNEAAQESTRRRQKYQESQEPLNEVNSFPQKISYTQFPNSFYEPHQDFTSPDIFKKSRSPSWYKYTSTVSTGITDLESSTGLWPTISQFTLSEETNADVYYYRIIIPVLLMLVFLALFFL
T26 sequence (Q16539 whole entry): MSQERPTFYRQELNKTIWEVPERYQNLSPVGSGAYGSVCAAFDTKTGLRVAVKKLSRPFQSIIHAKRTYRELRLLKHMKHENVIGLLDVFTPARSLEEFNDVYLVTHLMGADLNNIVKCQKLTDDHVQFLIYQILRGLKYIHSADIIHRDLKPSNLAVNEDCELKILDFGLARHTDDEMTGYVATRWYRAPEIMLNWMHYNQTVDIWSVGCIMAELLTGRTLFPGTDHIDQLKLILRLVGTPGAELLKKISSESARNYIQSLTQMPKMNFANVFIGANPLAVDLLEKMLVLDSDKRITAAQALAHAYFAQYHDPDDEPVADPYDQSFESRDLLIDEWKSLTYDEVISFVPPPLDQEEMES
T19 sequence (Q15418 1-391 limits assumed): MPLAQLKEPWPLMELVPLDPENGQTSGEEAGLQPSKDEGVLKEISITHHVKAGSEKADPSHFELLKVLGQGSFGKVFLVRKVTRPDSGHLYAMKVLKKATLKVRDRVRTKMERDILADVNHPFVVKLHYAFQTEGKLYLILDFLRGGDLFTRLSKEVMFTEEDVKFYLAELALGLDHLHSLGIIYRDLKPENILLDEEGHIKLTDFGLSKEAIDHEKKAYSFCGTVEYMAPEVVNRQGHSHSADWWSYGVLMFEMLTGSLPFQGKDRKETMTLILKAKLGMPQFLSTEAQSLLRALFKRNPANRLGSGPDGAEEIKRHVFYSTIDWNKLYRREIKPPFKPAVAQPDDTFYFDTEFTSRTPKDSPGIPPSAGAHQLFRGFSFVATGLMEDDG
T8 sequence (P49336 whole entry): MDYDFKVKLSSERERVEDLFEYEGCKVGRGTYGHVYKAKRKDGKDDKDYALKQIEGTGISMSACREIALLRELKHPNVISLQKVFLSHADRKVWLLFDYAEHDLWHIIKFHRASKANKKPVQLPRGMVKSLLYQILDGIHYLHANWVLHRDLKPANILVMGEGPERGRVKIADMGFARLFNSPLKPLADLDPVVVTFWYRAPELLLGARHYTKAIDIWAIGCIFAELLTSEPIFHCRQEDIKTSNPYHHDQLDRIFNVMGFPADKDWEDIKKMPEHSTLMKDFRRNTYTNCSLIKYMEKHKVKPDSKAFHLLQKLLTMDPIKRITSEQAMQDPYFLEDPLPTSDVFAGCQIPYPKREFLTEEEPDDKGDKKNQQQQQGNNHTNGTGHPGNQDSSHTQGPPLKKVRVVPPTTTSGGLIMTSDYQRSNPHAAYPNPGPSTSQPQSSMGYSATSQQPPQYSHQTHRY
T18 sequence (P27361 whole entry): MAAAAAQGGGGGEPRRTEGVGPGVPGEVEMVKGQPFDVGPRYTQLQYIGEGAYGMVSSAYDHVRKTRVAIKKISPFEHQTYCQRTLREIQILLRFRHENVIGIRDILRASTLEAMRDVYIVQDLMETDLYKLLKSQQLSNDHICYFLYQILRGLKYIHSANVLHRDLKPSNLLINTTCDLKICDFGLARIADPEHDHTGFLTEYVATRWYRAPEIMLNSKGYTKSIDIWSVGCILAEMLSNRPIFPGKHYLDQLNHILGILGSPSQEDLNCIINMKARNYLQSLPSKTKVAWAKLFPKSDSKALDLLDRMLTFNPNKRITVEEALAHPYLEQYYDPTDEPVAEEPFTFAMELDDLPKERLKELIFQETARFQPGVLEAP

Q: Which remaining binding at 1 µM (DCAMKL1) does the source give for O=C(O)c1ccc(-c2coc3ncc(-c4ccccc4)cc23)cc1Cl [SGC-CAMKK2-1N (UNC-YL-83)] here?
A: Its remaining binding at 1 µM is 100%.

Q: And the remaining binding at 1 µM (PIK3CG)?
A: Its remaining binding at 1 µM is 66%.

Q: And the remaining binding at 1 µM (ACVR2B)?
A: The remaining binding at 1 µM was 66%.

Q: And the remaining binding at 1 µM (FER)?
A: The remaining binding at 1 µM was 100%.

Q: And the remaining binding at 1 µM (TIE1)?
A: The remaining binding at 1 µM was 100%.

Q: What about the remaining binding at 1 µM (LATS2) of the same molecule?
A: The remaining binding at 1 µM was 87%.

Q: And the remaining binding at 1 µM [1]?
A: Its remaining binding at 1 µM is 68%.

Q: What about the remaining binding at 1 µM (CDK8) of the same molecule?
A: The remaining binding at 1 µM was 100%.

Q: And the remaining binding at 1 µM [2]?
A: The remaining binding at 1 µM was 100%.

Q: And the remaining binding at 1 µM (BMPR1B)?
A: The remaining binding at 1 µM was 65%.

Q: What about the remaining binding at 1 µM (PLK4) of the same molecule?
A: The remaining binding at 1 µM was 100%.

Q: And the remaining binding at 1 µM (ZAP70)?
A: The remaining binding at 1 µM was 85%.

Q: And the remaining binding at 1 µM (BRSK2)?
A: The remaining binding at 1 µM was 100%.

Q: What about the remaining binding at 1 µM (VRK2) of the same molecule?
A: Its remaining binding at 1 µM is 58%.

Q: What about the remaining binding at 1 µM (AURKB [3]) of the same molecule?
A: The remaining binding at 1 µM was 62%.

Q: What about the remaining binding at 1 µM (CDK4) of the same molecule?
A: The remaining binding at 1 µM was 82%.

Q: With Cc1cccc(-c2cnc3occ(-c4ccc(C(=O)O)c(C5CCCC5)c4)c3c2)c1 [SGC-CAMKK2-1 (YL-36)] as the molecule, how does the remaining binding at 1 µM (FAK) read?
A: The remaining binding at 1 µM was 92%.

Q: And the remaining binding at 1 µM (ERK1)?
A: The remaining binding at 1 µM was 100%.

Q: What about the remaining binding at 1 µM [4] of the same molecule?
A: The remaining binding at 1 µM was 100%.

Q: And the remaining binding at 1 µM (MST1)?
A: The remaining binding at 1 µM was 100%.

Q: And the remaining binding at 1 µM (CSF1R-autoinhibited)?
A: Its remaining binding at 1 µM is 85%.

Q: And the remaining binding at 1 µM (YES)?
A: The remaining binding at 1 µM was 100%.

Q: What about the remaining binding at 1 µM [5] of the same molecule?
A: Its remaining binding at 1 µM is 100%.

Q: And the remaining binding at 1 µM (ASK1)?
A: Its remaining binding at 1 µM is 100%.

Q: What about the remaining binding at 1 µM (AMPK-alpha1) of the same molecule?
A: Its remaining binding at 1 µM is 95%.

Q: What about the remaining binding at 1 µM (KIT(V559D,V654A)) of the same molecule?
A: Its remaining binding at 1 µM is 100%.

Q: What about the remaining binding at 1 µM (p38-alpha) of the same molecule?
A: Its remaining binding at 1 µM is 100%.

Q: What about the remaining binding at 1 µM (AURKB [6]) of the same molecule?
A: The remaining binding at 1 µM was 100%.

Q: And the remaining binding at 1 µM (NLK)?
A: The remaining binding at 1 µM was 81%.

Q: And the remaining binding at 1 µM (MLK3)?
A: Its remaining binding at 1 µM is 89%.

Q: And the remaining binding at 1 µM (TLK2)?
A: The remaining binding at 1 µM was 100%.

Q: And the remaining binding at 1 µM (CAMK2G)?
A: The remaining binding at 1 µM was 100%.

Reference: paper PMC9856672, “SGC-CAMKK2-1: A Chemical Probe for CAMKK2” (Cells, 2023)
